Laboratory results as given in patent publication US5985273A, “Biological control of insects” (priority 1994, dated 1999).

Columns and labels:
[1] = system: Lucilia cuprina larvae; test: Growth and survival of first instar sheep blowfly larvae on culture medium with inhibitor; type: in vivo; conditions: for % Growth Incubation / Average Larval Weight: Table 2.3; for Average Larval Weight: control 9.08
[2] = system: L. cuprina eggs; test: Egg hatch of L. cuprina on liver in vitro; type: in vivo, Lucilia cuprina; conditions: 24 hours at 35° C., control 71
Method: L. cuprina eggs were placed on pieces of liver (0.9 g) which were then placed in individual wells of a 24-well tissue culture plate. Phosphate buffered saline (PBS, 0.1 ml) containing inhibitors at set concentrations were added to each well with 30 freshly laid and sterilised eggs of L. cuprina. The culture plate was then maintained in a sterile environment at 35° C. for 24 hours, after which time the percentage hatch was assessed.

[3] = system: Heliothis punctigens larvae; test: Growth and survival of cotton budworm larvae fed an artificial diet; type: in vivo; conditions: 10 days; for % Alive: control 70.0; for Average Laval Weight: control 165.4
Method: 1. The Haricot beans were cooked in a microwave for 40 minutes. 2. Agar was added to the hot water and stirred on a hot plate until almost boiling. 3. The haricot beans, agar mix, yeast and wheat germ was blended in an electric mixer for 3 minutes. 4. When the temperature has dropped to 60°C., the acids were added and mixed with the media. […] Inhibitor solutions or an equal volume of water were placed into sterilized glass tubes at designated concentrations. The artificial media was added to each tube (1.5 ml) using a sterile 10 ml syringe. First instar Heliothis punctigens larvae (1 larvae per tube) were added to the glass tubes and the tubes were capped. The tubes were incubated for 10 days at 25° C. The larvae were killed by placing the glass tubes at -70° C. for 24 hours, and then individually weighed. Percentage inhibition was calculated by comparison to control larvae.

[4] = system: Ctenocephalides felis; test: Development of cat flea eggs in dried blood diets; type: in vivo; conditions: Day 16
Method: Blood was collected from the jugular vein of a five year old merino sheep that had not been treated with an ectoparasitic agent for 18 months. The blood was collected into a 100 ml plastic bottle containing 0.8 ml of heparin and was maintained at 4° C. Inhibitors were pre-weighed into sterile 5 ml plastic vials and 4.5 ml of blood added. The samples were mixed, placed at -70° C. for 24 hours, then freeze-dried. The freeze-dried samples were sieved through a stainless steel 63 micron sieve, and placed into sterile 5 ml plastic vials (0.15 g/per tube). Four flea eggs were placed into each vial, and a sheet of tissue paper fastened by an elastic band was fitted to the top of each vial. The vials were incubated at 25° C. and 70-80% R H for 6 days. Vermiculite was then added to each vial to provide a supporting medium for the fleas to pupate and the tubes incubated at 25° C. and 70-80% R H, for a further 10 days. Ten control vials and three vials of each treatment were tested.
At the conclusion of the incubation period the vials were placed at -20° C. for 24 hours to kill the fleas. The number of eggs hatched and the life-cycle state was recorded.

[5] = system: Teleogryllus commodus; test: Mortality of black field cricket nymphs on treated cabbage leaf disks; type: in vivo; conditions: 30 mM; after 7 days
Method: (i) Stock solutions of inhibitors and control solutions were prepared as aqueous solutions or suspensions as outlined in Table 6.1.
(ii) Mortality was assessed by commencing the study with 1st instar nymphs.
(iii) Cabbage leaf disks (5×8 mm diameter disks/treatment) were smeared with 100 μl of inhibitor or control stock solutions and allowed to dry. Disks were placed singly in 40 mm petri dishes, together with a moist cotton wool pas as water supply and a piece of fluted plastic for shelter.
(iv) Ten nymphs were placed on each disc and the dishes incubated at 25° C.
(v) Mortality was assessed daily and any dead individuals removed.

[6] = system: Bovicola ovis (Hartley strain); test: Survival of sheep lice on inhibitor treated wool; type: in vivo; conditions: of 10 lice
[7] = system: Tribolium castaneum; test: Growth and survival of Tribolium castaneum in treated flour; type: in vivo; conditions: Day 6; all dose levels
Method: Insects were cultured in cleaned, ground and sieved wholemeal flour made from organic wheat. Inhibitors from bottles of pre-weighed material were dry-mixed with the flour and residual inhibitor rinsed from bottles with a small volume of water. Rinse water was added to the flour and the mixture re-ground. The impregnated flour was transferred to a 20 mL vial and mixed thoroughly by shaking and inverting. Adults of T. castaneum were allowed to oviposit on flour, eggs were sifted from the flour and transferred one by one with a single hair to microwell tubes containing a small amount of flour. Each level of treatment was performed in triplicated using 32 wells/replicate. Assays were performed in triplicated. Cultures were incubated at 30° C. and 55% R H. After 6 days each replicate of 32 wells was combined, the larvae counted and the numbers compared with numbers in the control (no inhibitor) treatment. Larvae were classified as "small" if appreciably smaller than reference larvae, or abnormal if unusual behaviour or formation were observed (eg. twisting or twisted larvae). Test inhibitors and dose rates were the same as those used in Example 4.

[8] = system: O. surinamensis larvae; test: Weight reduction of Oryzaephylus surinamensis larvae in treated flour; type: in vivo
Method: Insects were cultured in cleaned, ground and sieved wholemeal flour made from organic wheat. Inhibitors from bottles of pre-weighed material were dry-mixed with the flour and residual inhibitor rinsed from bottles with a small volume of water. Rinse water was added to the flour and the mixture re-ground. The impregnated flour was transferred to a 20 mL vial and mixed thoroughly by shaking and inverting.
Adults of T. castaneum were allowed to oviposit on flour, eggs were sifted from the flour and transferred one by one with a single hair to microwell tubes containing a small amount of flour. Each level of treatment was performed in triplicated using 32 wells/replicate. Assays were performed in triplicated. Cultures were incubated at 30° C. and 55% R H.
The bioassay for this insect was outlined for T. castaneum, except incubations were conducted at 32.5° C. and 70% R H. After 8 days the insects were sieved from the flour and weighed.

SMILES: O=C(O)CN(CCN(CC(=O)O)CC(=O)O)CC(=O)O [EDTA, ethylene diamine tetraacetic acid]
- Effect on larval growth, summary in words ([1]; Example 1, Table 1.2): effective growth inhibitors
- inhibition at 5000 µM ([1]; Lucilia cuprina, first instar larvae, 5 mM): 84%
- % Growth Incubation ([1]; 0.25 mM): -6.6%
- Average Larval Weight ([1]; 0.25 mM): 9.68 10^-4 g
- % Growth Incubation ([1]; 0.50 mM): 39.8%
- Average Larval Weight ([1]; 0.50 mM): 5.47 10^-4 g
- % Growth Incubation ([1]; 1.0 mM): 69.7%
- Average Larval Weight ([1]; 1.0 mM): 2.75 10^-4 g
- % Growth Incubation ([1]; 1.5 mM): 51.2%
- Average Larval Weight ([1]; 1.5 mM): 4.43 10^-4 g
- % Growth Incubation ([1]; 2.0 mM): 72.4%
- Average Larval Weight ([1]; 2.0 mM): 2.51 10^-4 g
- Larval survival ([1]; first instar larvae, 10 mM): All killed
- % Hatch ([2]; 2 mM): 10%
- % Hatch ([2]; 5 mM): 0%
- % Hatch ([2]; 10 mM): 10%
- % Alive ([3]; 2.5 mM): 50.0%
- Average Laval Weight ([3]; 2.5 mM): 123.6 mg
- % Alive ([3]; 5.0 mM): 33.3%
- Average Laval Weight ([3]; 5.0 mM): 9.25 mg
- % Alive ([3]; 10.0 mM): 67.0%
- Average Laval Weight ([3]; 10.0 mM): 4.75 mg
- inhibition at 2500 µM ([3]; Heliothis, 240 h, 2.5 mM, read-out: % Growth Inhibition): 25.3%
- inhibition at 5000 µM ([3]; Heliothis, 240 h, 5.0 mM, read-out: % Growth Inhibition): 94.4%
- inhibition at 10000 µM ([3]; Heliothis, 240 h, 10.0 mM): 97.1%
- Percentage of Fleas Progressing Through to Pupation ([4]; 1.5625 mg in 4.5 ml of blood, control 97.5): 0%
- Percentage of Fleas Progressing Through to Pupation ([4]; 3.125 mg in 4.5 ml of blood): 0%
- Percentage of Fleas Progressing Through to Pupation ([4]; 6.25 mg in 4.5 ml of blood): 0%
- Mortality [5]: 78%
- Mortality (class) [5]: High (high 41-100%)
- Number of Living Lice ([6]; Adult, 10 mM, 24 Hours at 35° C.): 2
- Number of Living Lice ([6]; Adult, 20 mM, 24 Hours at 35° C.): 1
- Number of Living Lice ([6]; Adult, third EDTA line, concentration not given, 24 Hours): 0
- Number of Living Lice ([6]; instar 1, 10 mM, 24 Hours at 35° C.): 0
- Number of Living Lice ([6]; instar 1, 20 mM, 24 Hours at 35° C.): 0
- Number of Living Lice ([6]; instar 1, third EDTA line, concentration not given, 24 Hours): 0
- Number of Living Lice ([6]; instar 2, 10 mM, 24 Hours at 35° C.): 2
- Number of Living Lice ([6]; instar 2, 20 mM, 24 Hours at 35° C.): 1
- Number of Living Lice ([6]; instar 2, third EDTA line, concentration not given, 24 Hours): 0
- Number of Living Lice ([6]; instar 3, 10 mM, 24 Hours at 35° C.): 1
- Number of Living Lice ([6]; instar 3, 20 mM, 24 Hours at 35° C.): 0
- Number of Living Lice ([6]; instar 3, third EDTA line, concentration not given, 24 Hours): 0
- Larval size classification [7]: small
- inhibition at 10000 µM ([8]; 192 h, 10 mM, 8 days, relative to untreated larvae, read-out: Percentage Growth Inhibition): 32%
- inhibition at 20000 µM ([8]; 192 h, 20 mM, 8 days, relative to untreated larvae, read-out: Percentage Growth Inhibition): 4%
- inhibition at 30000 µM ([8]; 192 h, 30 mM, 8 days, relative to untreated larvae, read-out: Percentage Growth Inhibition): 28%
- Growth inhibition, summary in words ([8]; text summary of Table 9.1): moderately effective
